According to US10005744B2, “Compounds for the treatment or prevention of breast cancer” (JIANGSU ATOM BIOSCIENCE AND PHARMACEUTICAL CO., LTD., priority 2015, dated 2018):
Read-outs that look alike come from different tables or passages of the source.

What was measured:
Format in all cases: cell-based
[1] = tested on: human normal liver cells L-02; assay: Growth inhibition of human normal liver cells L-02
Description: (§1) 1. Breast cancer cells MCF-7 (Luminal type cells) and MDA-MB-468 (basal-like cells, which are of the triple-negative type without epithelial-mesenchymal transition) were purchased from Cell Resource Center of Shanghai Institutes for Biological Sciences of the Chinese Academy of Sciences, and cultured with DMEM culture medium(containing 10% of fetal bovine serum, 10 U/mL of penicillin and 0.1 mg/mL of streptomycin) in a 5% CO2 incubator at 37[…] until the cell density was about 90%.
(§2) 2. The cells were inoculated to a 96-well plate at a cell population of 3×10^3/well and then cultured in the 5% CO2 incubator for 24 h at 37[…].
(§3) 3. Tested compounds of different concentration gradients were prepared by using the DMEM culture medium, and added into wells at 100 μL/well as tested compounds wells; and, the DMEM culture liquid was added into wells at 100 μL/well as negative control wells. At 37[…] and in the 5% CO2 incubator, the MCF-7 cells were cultured for 120 h, and MDA-MB-468 cells were cultured for 72 h.
(§4) 4. Resazurin (15 mg/50 mL), Methylene Blue (25 mg/10 mL), Potassium ferricyanide (0.329 g/100 mL) and Potassium ferrocyanide (0.422 g/100 mL) were dissolved into PBS (0.1 M, pH=7.4) to obtain Alamar Blue solution for standby.
(§5) 5. The cells were washed with PBS (0.1 M, pH=7.4) for two times, and the Alamar Blue solution was added into wells at 100 μL/well; and 100 μL of Alamar Blue solution was added into wells without cells to serve as blank control cells. The 96-well plate was placed into the 5% CO2 incubator at 37[…] and cultured for 3 h.
(§6) 6. The fluorescence value of the cells was detected at 530/590 nm by ELIASA Victor X4 (Perkin Elmer). The fluorescence value at each concentration was repetitively measured for 4 times to obtain an average value and a standard deviation. The cell viability was calculated by the following formula[User2]: […]
(§7) 7. The half inhibitory concentration (IC50) of the tested compounds againstt he cell lines was obtained according to the cell viability by Prism Graph software.
(§8) Growth inhibition tests of the tested compounds 7, 17, 18, 34, 35 and 41 on the human lung cancer cells H1299, human colon cancer cells HT29, human liver cancer cells SK-HEP-1, human colon cancer cells HCT116, human normal liver cells L-02 and WRL-68 were conducted, and the method refers to Embodiment 19 “Inhibition effects of the compounds on the growth of breast cancer cells MCF-7 and MDA-MB-468”.

[2] = tested on: human lung cancer cells H1299; assay: Growth inhibition of human lung cancer cells H1299
Description: as §1, §2, §3, §4, §5, §6, §7, §8

[3] = tested on: human colon cancer cells HCT116; assay: Growth inhibition of human colon cancer cells HCT116
Description: as §1, §2, §3, §4, §5, §6, §7, §8

[4] = tested on: human liver cancer cells SK-HEP-1; assay: Growth inhibition of human liver cancer cells SK-HEP-1
Description: as §1, §2, §3, §4, §5, §6, §7, §8

MCF-7 = assay: Growth inhibition of breast cancer cell line MCF-7 (Alamar Blue); details: Homo sapiens; for IC50: read-out: Half inhibitory concentration (IC50) against MCF-7
Description: as §1, §2, §3, §4, §5, §6, §7

[5] = tested on: human normal liver cells WRL-68; assay: Growth inhibition of human normal liver cells WRL-68
Description: as §1, §2, §3, §4, §5, §6, §7, §8

MDA-MB-468 = assay: Growth inhibition of breast cancer cell line MDA-MB-468 (Alamar Blue); details: Homo sapiens, read-out: Half inhibitory concentration (IC50) against MDA-MB-468
Description: as §1, §2, §3, §4, §5, §6, §7

[6] = tested on: human colon cancer cells HT29; assay: Growth inhibition of human colon cancer cells HT29
Description: as §1, §2, §3, §4, §5, §6, §7, §8

[7] = L02, read-out: half inhibitory concentration (IC50)
[8] = NCI-H1299, read-out: half inhibitory concentration (IC50)
[9] = HCT-116, read-out: half inhibitory concentration (IC50)
[10] = SK-HEP1, read-out: half inhibitory concentration (IC50)
[11] = WRL68, read-out: half inhibitory concentration (IC50)
[12] = HT-29, read-out: half inhibitory concentration (IC50)

| Compound | IC50 [1, 7] | IC50 [2, 8] | IC50 [3, 9] | IC50 [4, 10] | IC50 (MCF-7; MCF7, 120 h) | IC50 [5, 11] | IC50 (MDA-MB-468; MDA-MB-468, 72 h) | IC50 [6, 12] | IC50 ([1]; L02, L-02 cells, range stated over the six cell lines, read-out: half inhibitory concentration (IC50)) | IC50 ([2]; NCI-H1299, H1299 cells, range stated over the six cell lines, read-out: half inhibitory concentration (IC50)) | IC50 ([3]; HCT-116, HCT116 cells, range stated over the six cell lines, read-out: half inhibitory concentration (IC50)) | IC50 ([4]; SK-HEP1, SK-HEP-1 cells, range stated over the six cell lines, read-out: half inhibitory concentration (IC50)) | IC50 (MCF-7; MCF7, MCF-7 cells cultured 120 h with compound, Alamar Blue) | inhibition at 0.5 µM (MCF-7; MCF7, highest concentration, 500 nM, read-out: inhibition rate to MCF-7 cell line) | IC50 ([5]; WRL68, WRL-68 cells, range stated over the six cell lines, read-out: half inhibitory concentration (IC50)) | IC50 (MDA-MB-468; MDA-MB-468 cells cultured 72 h with compound, Alamar Blue) | IC50 ([6]; HT-29, HT29 cells, range stated over the six cell lines, read-out: half inhibitory concentration (IC50)) |
| --- | --- | --- | --- | --- | --- | --- | --- | --- | --- | --- | --- | --- | --- | --- | --- | --- | --- |
| Nc1ccc(-c2nc3ccccc3[se]2)cc1Br [Compound 7, 4-(benzoselenazole-2-yl)-2-bromoaniline] | > 10000 nM | > 10000 nM | > 10000 nM | > 10000 nM | 56.7 nM | > 10000 nM | 74.1 nM | > 10000 nM | – | – | – | – | – | – | – | – | – |
| Nc1ccc(-c2nc3cc(F)ccc3[se]2)cc1Br [Compound 14, 2-bromo-4-(5-fluorobenzoselenazole-2-yl)aniline] | – | – | – | – | 188 nM | – | 138 nM | – | – | – | – | – | – | – | – | – | – |
| Cc1cc(-c2nc3cc(F)ccc3[se]2)ccc1N [Compound 17, 4-(5-fluorobenzoselenazole-2-yl)-2-methylaniline] | > 10000 nM | > 10000 nM | > 10000 nM | > 10000 nM | 72.8 nM | > 10000 nM | 58.5 nM | > 10000 nM | – | – | – | – | – | – | – | – | – |
| Cc1cc(-c2nc3cc(F)ccc3[se]2)cc(Br)c1N [Compound 18, 2-bromo-4-(5-fluorobenzoselenazole-2-yl)-6-methylaniline] | > 10000 nM | > 10000 nM | > 10000 nM | > 10000 nM | 91.9 nM | > 10000 nM | 70.9 nM | > 10000 nM | – | – | – | – | – | – | – | – | – |
| Cc1ccc2[se]c(-c3ccc(N)c(C)c3)nc2c1 [Compound 26, 2-methyl-4-(5-methylbenzoselenazole-2-yl)aniline] | – | – | – | – | 134 nM | – | – | – | – | – | – | – | – | – | – | – | – |
| Nc1ccc(-c2nc3cc(F)ccc3[se]2)cc1F [Compound 34, 2-fluoro-4-(5-fluorobenzoselenazole-2-yl)aniline] | > 10000 nM | > 10000 nM | > 10000 nM | > 10000 nM | 52.4 nM | > 10000 nM | 29.1 nM | > 10000 nM | – | – | – | – | – | – | – | – | – |
| Nc1c(F)cc(-c2nc3cc(F)ccc3[se]2)cc1Br [Compound 35, 2-bromo-6-fluoro-4-(5-fluorobenzoselenazole-2-yl)aniline] | > 10000 nM | > 10000 nM | > 10000 nM | > 10000 nM | 41.6 nM | > 10000 nM | 39.7 nM | > 10000 nM | – | – | – | – | – | – | – | – | – |
| Cc1ccc(-c2nc3cc(F)ccc3[se]2)cc1N [Compound 37, 5-(5-fluorobenzoselenazole-2-yl)-2-methylaniline] | – | – | – | – | 450 nM | – | 114 nM | – | – | – | – | – | – | – | – | – | – |
| Nc1c(F)cc(-c2nc3cc(F)ccc3[se]2)cc1F [Compound 41, 2,6-difluoro-4-(5-fluorobenzoselenazole-2-yl)aniline] | > 10000 nM | > 10000 nM | > 10000 nM | > 10000 nM | 56.8 nM | > 10000 nM | 20.1 nM | > 10000 nM | – | – | – | – | – | – | – | – | – |
| CC(=O)O[C@H]1C(=O)[C@@]2(C)[C@H]([C@H](OC(=O)c3ccccc3)[C@]3(O)C[C@H](OC(=O)[C@H](O)[C@@H](NC(=O)c4ccccc4)c4ccccc4)C(C)=C1C3(C)C)[C@]1(OC(C)=O)CO[C@@H]1C[C@@H]2O [Paclitaxel, paclitaxel, reference compound] | – | – | – | – | – | – | – | – | 1.59 to 15.3 nM | 1.59 to 15.3 nM | 1.59 to 15.3 nM | 1.59 to 15.3 nM | 4.6 nM | 70% | 1.59 to 15.3 nM | 4.43 nM | 1.59 to 15.3 nM |
